From ChEMBL document CHEMBL1137628, “Bactericidal activity of extended 9-glycyl-amido-minocyclines” (2007)
In brackets after ≈: the same amount, converted by molar mass.

System: Staphylococcus aureus
Assay: Antibacterial activity against Staphylococcus aureus Rosenbach after 14 hrs
Format: functional

| MIC | Compound |
| --- | --- |
| 2 µg/mL (≈ 4.23 µM) | CN(C)c1cc(N)c(O)c2c1C[C@H]1C[C@H]3[C@H](N(C)C)C(O)=C(C(N)=O)C(=O)[C@@]3(O)C(O)=C1C2=O |
| 2 µg/mL (≈ 3.78 µM) | CN(C)c1cc(NC(=O)CN)c(O)c2c1C[C@H]1C[C@H]3[C@H](N(C)C)C(O)=C(C(N)=O)C(=O)[C@@]3(O)C(O)=C1C2=O |
| 2 µg/mL (≈ 3.67 µM) | CN(C)c1cc(NC(=O)CNN)c(O)c2c1C[C@H]1C[C@H]3[C@H](N(C)C)C(O)=C(C(N)=O)C(=O)[C@@]3(O)C(O)=C1C2=O |

| Compound | MIC |
| --- | --- |
| CN(C)c1ccc(O)c2c1C[C@H]1C[C@H]3[C@H](N(C)C)C(O)=C(C(N)=O)C(=O)[C@@]3(O)C(O)=C1C2=O [MINOCYCLINE] | 0.125 µg/mL (≈ 0.273 µM) |
